Assay results: patent US8106235B2, “Biphenyl compound selective agonists of gamma RAR receptors” (Galderma Research & Development, priority 2005, dated 2012)

Experiments:
RAR beta = biological target: T1, RAR beta (Homo sapiens, UniProt P10826); test: Transactivation test (luciferase reporter, apparent Kd by Schild regression against a reference antagonist), RAR beta; type: cell-based; conditions: HeLa stable transfectants, ERE-βGlob-Luc reporter, read-out: RAR beta Kdapp
T1 construct: It drives the ERE-βGlob-Luc reporter
T1 sequence (P10826 183-417 limits assumed): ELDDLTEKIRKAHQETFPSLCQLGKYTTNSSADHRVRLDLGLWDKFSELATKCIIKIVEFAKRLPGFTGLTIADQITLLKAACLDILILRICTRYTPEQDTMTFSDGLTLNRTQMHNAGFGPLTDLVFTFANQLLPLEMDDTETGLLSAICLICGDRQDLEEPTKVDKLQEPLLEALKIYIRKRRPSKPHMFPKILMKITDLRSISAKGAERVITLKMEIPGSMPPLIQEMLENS
Experimental: (§1) The activation of the receptors by an agonist (activator) in HeLa cells results in the expression of a reporter gene, luciferase, which, in the presence of a substrate, generates light. It is thus possible to measure the activation of the receptors by quantifying the luminescence produced after incubation of the cells in the presence of a reference antagonist. The activating products displace the antagonist from its site, thus allowing activation of the receptor. The activity is measured by quantifying the increase in the light produced. This measurement makes it possible to determine the activator activity of the compound that can be used in the invention.
(§2) In this study, a constant which is the affinity of the molecule for the receptor is determined. […]
(§3) These cross curves make it possible to determine the AC50 values (concentration at which 50% activation of the receptor is observed) of the reference ligand at various concentrations of test product. These AC50 values are used to calculate the Schild regression by plotting a straight line corresponding to the Schild equation (“Quantitation in receptor pharmacology” Terry P. Kenakin, Receptors and Channels, 2001, 7, 371-385).
(§4) In the case of an agonist, the AC50 is calculated by plotting the curve of the product at the concentration of the reference ligand giving 80% activation. […]

RAR alpha = biological target: T2, RAR alpha (Homo sapiens, UniProt P10276); test: Transactivation test (luciferase reporter, apparent Kd by Schild regression against a reference antagonist), RAR alpha; type: cell-based; conditions: HeLa stable transfectants, ERE-βGlob-Luc reporter, read-out: RAR alpha Kdapp
T2 construct: It drives the ERE-βGlob-Luc reporter
T2 sequence (P10276 183-417 limits assumed): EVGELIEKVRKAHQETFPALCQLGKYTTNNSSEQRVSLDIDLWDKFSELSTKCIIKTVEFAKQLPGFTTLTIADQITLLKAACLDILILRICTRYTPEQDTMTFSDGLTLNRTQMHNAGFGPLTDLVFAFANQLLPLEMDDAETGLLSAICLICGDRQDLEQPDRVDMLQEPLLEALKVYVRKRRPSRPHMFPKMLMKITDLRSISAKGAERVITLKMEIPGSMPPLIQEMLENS
Experimental: as §1, §2, §3, §4

RAR gamma [1] = biological target: T3, RAR gamma (Homo sapiens, UniProt P13631); test: Transactivation test (luciferase reporter, apparent Kd by Schild regression against a reference antagonist), RAR gamma; type: cell-based; conditions: HeLa stable transfectants, ERE-βGlob-Luc reporter, RAR gamma; apparent Kd; read-out: RAR gamma Kdapp
T3 construct: RAR gamma Kdapp; apparent Kd; It drives the ERE-βGlob-Luc reporter
T3 sequence (P13631 185-419 limits assumed): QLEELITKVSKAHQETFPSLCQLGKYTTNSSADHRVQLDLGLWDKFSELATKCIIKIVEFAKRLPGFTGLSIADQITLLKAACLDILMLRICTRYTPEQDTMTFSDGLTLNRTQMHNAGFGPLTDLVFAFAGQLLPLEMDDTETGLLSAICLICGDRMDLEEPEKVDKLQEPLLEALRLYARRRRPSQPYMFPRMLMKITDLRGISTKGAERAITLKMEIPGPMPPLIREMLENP
Experimental: as §1
(§5) In this study, a constant which is the affinity of the molecule for the receptor is determined. Since this value can fluctuate according to the basal activity and the expression of the receptor, it is designated apparent Kd (KdApp).
(§6) In order to determine this constant, “cross curves” of the test product (4′-(3′-hydroxypropyl)-3′-(5,5,8,8-tetramethyl-5,6,7,8-tetrahydronaphthalen-2-yl)biphenyl-4-carboxylic acid and 4′-(2,3-dihydroxypropyl)-3′-(5,5,8,8-tetramethyl-5,6,7,8-tetrahydronaphthalen-2-yl)biphenyl-4-carboxylic acid), against a reference antagonist otherwise known as reference ligand, 4-(5,5-dimethyl-8-p-tolyl-5,6-dihydronaphthalen-2-ylethynyl)benzoic acid, are produced. The test product is used at 10 concentrations and the reference antagonist at 7 concentrations. In each well (of a 96-well plate), the cells are in contact with one concentration of the test product and one concentration of the reference antagonist. […]
as §3
(§7) In the case of an agonist, the AC50 is calculated by plotting the curve of the product at the concentration of the reference ligand giving 80% activation. The percentage activation which corresponds to the maximum level of activity obtained is also measured. […]
(§8) The culture medium is removed by turning the plates over, and […] of a 1:1 PBS (phosphate buffered solution)/luciferin mixture are added to each well. After 5 minutes, the plates are read using the luminescence reader.

RAR gamma [2] = test: as above; type: cell-based; conditions: statement in words, from the Kdapp values of the transactivation test
Experimental: as §1, §5, §6, §3, §7, §8

CC1(C)CCC(C)(C)c2cc(-c3cc(-c4ccc(C(=O)O)cc4)ccc3CCCO)ccc21 [Example 1, 4′-(3-hydroxypropyl)-3′-(5,5,8,8-tetramethyl-5,6,7,8-tetrahydronaphthalen-2-yl)biphenyl-4-carboxylic acid]
Kd (RAR beta): 2 nM
Kd (RAR alpha): 15 nM
Kd (RAR gamma [1]): 0.1 nM
selectivity for the RAR gamma receptor subtype in comparison with RAR alpha and RAR beta (RAR gamma [2]): better selectivity of these compounds for the RAR gamma receptor subtype
melting point: 203 °C

CC1(C)CCC(C)(C)c2cc(-c3cc(-c4ccc(C(=O)O)cc4)ccc3CC(O)CO)ccc21 (stereo not drawn) [Example 2, 4′-(2,3-dihydroxypropyl)-3′-(5,5,8,8-tetramethyl-5,6,7,8-tetrahydronaphthalen-2-yl)biphenyl-4-carboxylic acid]
Kd (RAR beta): 15 nM
Kd (RAR alpha): 60 nM
Kd (RAR gamma [1]): 0.5 nM
selectivity for the RAR gamma receptor subtype in comparison with RAR alpha and RAR beta (RAR gamma [2]): better selectivity of these compounds for the RAR gamma receptor subtype
